According to PMC3494675, “Structure-Function Analysis of the Glioma Targeting NFL-TBS.40-63 Peptide Corresponding to the Tubulin-Binding Site on the Light Neurofilament Subunit” (PLoS ONE, 2012):
Square brackets hold non-standard residues; d marks the D form. Peptide text beside a SMILES is read from it. * marks the point of attachment. Biotin = O=C1N[C@H]2[C@H](CS[C@H]2CCCCC(=O)*)N1; pS = N[C@@H](COP(=O)(O)O)C(=O)O

Legend:
[1] = test system: T98G human glioblastoma cells; test: Disintegration of the microtubule network in T98G cells (anti-tubulin immunostaining, cell counting); assay type: cell-based; settings: 6 hours; for Disintegration of MT (% of cells): T98G cells, 10 µM biotinylated peptide, anti-tubulin immunostaining, minimum 200 cells per experiment, mean ± S.E.M., triplicated
In short: (§1)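 Cells on cover slips were cultured 6 h with 10 μM biotinylated peptide, permeabilized, and stained with anti-β-tubulin plus fluorescent streptavidin. By fluorescence/confocal microscopy, ≥200 cells per experiment were scored for peptide uptake and for a normal versus destroyed microtubule network; at least three repeats.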

[2] = test system: glioma cells; settings: shown previously; cited from earlier work
Excerpt: However, contrary to the known CPPs, which are composed mostly of arginines and lysines, the NFL-TBS.40-63 peptide contains only 2 arginine residues and no lysine. […] In addition, the cell penetrating activity appears to correlate with a particular structural pattern.

[3] = test system: T98G human glioblastoma cells; test: Peptide incorporation into T98G cells (immunocytochemistry, cell counting); assay type: cell-based; settings: for Peptide incorporation (% of cells): T98G cells, 10 µM biotinylated peptide, Alexa-labeled avidin/streptavidin fluorescence microscopy, minimum 200 cells per experiment, mean ± S.E.M., triplicated
In short: as §1

[4] = Secondary structure estimation from CD spectra; assay type: physicochemical; settings: Reed's reference set
Protocol: (§2) Circular dichroism (CD) spectra were measured in a J-810 CD spectrometer (Jasco, Japan) in step mode (bandwidth: 2 nm; interval: 0.1 nm; response time: 0.125 s). The spectra were averaged over 3 scans to increase the signal to noise ratio. To optimize the measurements, a 1 cm×0.2 cm mini-quartz cell with four windows (Hellema, Germany) was used in such a way that the spectra from 260 to 200 nm were measured with a 1 cm pathlength and those between 220 and 185 nm with 0.2 cm pathlength. After normalization for pathlength (1 cm), the superimposition of two separated spectra in the 200–220 nm region was verified and the entire spectra reconstituted. The temperature of measurement was controlled with a Peltier-effect temperature controller, and was usually 20°C. The structural stability of peptides was studied by measuring the variation in CD signal at 220 nm (bandwidth: 10 nm; interval: 1 s; response time: 0.5 s; pathlength: 1 cm) when the temperature was increased by 1°C/min from 20 to 85°C. All the CD experiments were performed with 20 µM peptide under 3 buffer conditions: pure water, 2 mM SDS and 10 mM potassium phosphate pH 7.4 with 200 mM KF.
The secondary structures were estimated from the CD spectra with Jasco secondary structure estimation software. The spectra from […] were decomposed to α-helix, β-sheet, β-turn and random coil elements using either Reed's or Yang's reference set as reference spectrum of each element as described, [38]. We usually obtained better fits using Reed's reference.

[5] = Structural (thermal) stability by circular dichroism at 220 nm; assay type: physicochemical
Protocol: as §2, with “The structural stability of peptides was studied by measuring the variation in CD signal at 220 nm (bandwidth: 10 nm; interval: 1 s; response time: 0.5 s; pathlength: 1 cm) when the temperature was increased by 1°C/min from 20 to 85°C.” left out

[6] = test system: Human adrenal carcinoma SW13 cells; test: Effect on MT network of SW13 cells (immunocytochemistry); assay type: cell-based; settings: 10 µM, 6 hours
Protocol: (§3) Figure 1 Internalization and effects on glioblastoma T98G cells of the wild type peptide NFL-TBS.40-63 and peptides from the alanine scan. (A): Human glioblastoma T98G cells were incubated in the presence of different peptides at 10 µM during 6 hours. MTs were detected by immunostaining using an anti-tubulin antibody (red), and biotinylated peptides were detected using Alexa-labeled avidin (green). While the original NFL-TBS.40-63 peptide is able to penetrate in these cells, the replacement of valine-14 by alanine typically abolished this property. White bars, 20 µm. (B) Human adrenal carcinoma SW13 cells were incubated in the presence of NFL-TBS.40-63 peptide (10 µM, 6 hours). MTs appear in red, peptide in green, nuclei in blue. White bars, 20 µm. (C): We quantified by microscopy the percentage of T98G cells containing the peptide and those with a destroyed MT network. Experiments were triplicated and a minimum of 200 cells was examined in each experiment. Data are presented as mean and S.E.M. (bars). Asterisks indicate significant level versus control: * p<0.05; ** p<0.005; *** p<0.001. As glioblastoma cells are known to have multiple mutations and abnormalities, the shaded area corresponds to the percentage of cells where MTs are disorganized even in the absence of peptide.
(§4) Cells were plated on cover slips and cultured in media containing biotinylated peptides (10 µM) for 6 hours. […]

[7] = test system: Human adrenal carcinoma SW13 cells; test: Peptide entry into SW13 cells (immunocytochemistry); assay type: cell-based; settings: 10 µM, 6 hours
Protocol: as §3, §4

[8] = KF/phosphate buffer pH 7.4, 20 µM

SMILES	Disintegration of MT (% of cells) [1]	Cell penetration / internalization (in words) [2]	Peptide incorporation (% of cells) ([3]; 6 hours)	random coil content [4, 8] [%]	β-sheet content [4, 8] [%]	Effect on MT network of T98G / glioma cells (in words) ([1]; 10 µM, immunocytochemistry)	Cell penetration / internalization in T98G cells (in words) ([3]; 10 µM, 6 hours, immunocytochemistry, compared to original NFL-TBS.40-63)	random coil content ([4]; 2 mM SDS, 20 µM) [%]	α-helix content ([4]; 2 mM SDS, 20 µM) [%]	β-sheet content ([4]; 2 mM SDS, 20 µM) [%]	α-helix content [4, 8] [%]	random coil content ([4]; pure water, 20 µM, 20°C) [%]	β-sheet content ([4]; pure water, 20 µM, 20°C) [%]	Refolding on lowering temperature ([5]; CD 220 nm, KF/phosphate buffer, 70 to 10°C at 1°C per min and after 12 hours at 20°C)	Tm of thermal unfolding ([5]; CD signal at 220 nm, 20 µM peptide, KF/phosphate buffer (10 mM potassium phosphate pH 7.4, 200 mM KF), 1°C/min)	Structural stability with increasing temperature ([5]; CD, 20 µM peptide in 2 mM SDS, up to 70°C)	Effect on MT network of SW13 cells [6]	Cell penetration of the peptide once heated ([3]; peptide heated in KF/phosphate buffer (thermally unfolded))	Entry into SW13 cells [7]
CC(C)C[C@H](NC(=O)[C@H](CO)NC(=O)[C@@H](NC(=O)[C@H](CCCNC(=N)N)NC(=O)[C@H](CCCNC(=N)N)NC(=O)[C@H](CO)NC(=O)[C@H](Cc1ccc(O)cc1)NC(=O)[C@H](CO)NC(=O)[C@H](CO)NC(=O)[C@H](CO)NC(=O)[C@H](CO)NC(=O)CNC(=O)[C@H](CO)NC(=O)CCCC[C@@H]1SC[C@@H]2NC(=O)N[C@@H]21)C(C)C)C(=O)N[C@@H](CO)C(=O)N[C@@H](CO)C(=O)N[C@@H](CO)C(=O)N[C@H](C(=O)N1CCC[C@H]1C(=O)N[C@@H](C)C(=O)N[C@@H](CO)C(=O)N[C@@H](Cc1ccc(O)cc1)C(=O)N[C@@H](CO)C(=O)N[C@@H](CO)C(=O)N[C@@H](Cc1ccc(O)cc1)C(N)=O)C(C)C [NFL-SBT, reference compound] (Biotin-SGSSSSYSRRVSLSSSVPASYSSY-NH2)	32.41±0.87 % of cells	do not penetrate in cells	0 % of cells	–	–	–	–	–	–	–	–	–	–	–	–	–	–	–	–
CC(C)C[C@H](NC(=O)[C@H](CO)NC(=O)[C@H](CO)NC(=O)[C@H](CO)NC(=O)[C@@H](NC(=O)[C@@H]1CCCN1C(=O)[C@H](C)NC(=O)[C@H](CO)NC(=O)[C@H](Cc1ccc(O)cc1)NC(=O)[C@H](CO)NC(=O)[C@H](CO)NC(=O)[C@H](Cc1ccc(O)cc1)NC(=O)CCCC[C@@H]1SC[C@@H]2NC(=O)N[C@@H]21)C(C)C)C(=O)N[C@@H](CO)C(=O)N[C@H](C(=O)N[C@@H](CCCNC(=N)N)C(=O)N[C@@H](CCCNC(=N)N)C(=O)N[C@@H](COP(=O)(O)O)C(=O)N[C@@H](Cc1ccc(O)cc1)C(=O)N[C@@H](CO)C(=O)N[C@@H](CO)C(=O)N[C@@H](CO)C(=O)N[C@@H](CO)C(=O)NCC(=O)N[C@@H](CO)C(N)=O)C(C)C [Ser17SerP] (Biotin-YSSYSAPVSSSLSVRR[pS]YSSSSGS-NH2)	22.9±1.3 % of cells	–	32.8±8.7 % of cells	53	40	not altered	decreased internalization	–	–	–	–	–	–	–	–	–	–	–	–
CC(C)C[C@H](NC(=O)[C@H](CO)NC(=O)[C@H](CO)NC(=O)[C@H](CO)NC(=O)[C@@H](NC(=O)[C@@H]1CCCN1C(=O)[C@H](C)NC(=O)[C@H](CO)NC(=O)[C@H](Cc1ccc(O)cc1)NC(=O)[C@H](CO)NC(=O)[C@H](CO)NC(=O)[C@H](Cc1ccc(O)cc1)NC(=O)CCCC[C@@H]1SC[C@@H]2NC(=O)N[C@@H]21)C(C)C)C(=O)N[C@@H](CO)C(=O)N[C@H](C(=O)N[C@@H](CCCNC(=N)N)C(=O)N[C@@H](CCCNC(=N)N)C(=O)N[C@@H](CO)C(=O)N[C@@H](Cc1ccc(O)cc1)C(=O)N[C@@H](CO)C(=O)N[C@@H](CO)C(=O)N[C@@H](CO)C(=O)N[C@@H](CO)C(=O)NCC(=O)N[C@@H](CO)C(N)=O)C(C)C [NFL-TBS.40-63] (Biotin-YSSYSAPVSSSLSVRRSYSSSSGS-NH2)	58.4±2.3 % of cells	–	51.2±4.2 % of cells	36	56	–	–	40	20	40	7	75	25	no refolding was observed	about 40 °C	stable	without affecting the MT network	could not penetrate into the cells	enters in SW13 cells
CC(C)C[C@H](NC(=O)[C@H](CO)NC(=O)CCCC[C@@H]1SC[C@@H]2NC(=O)N[C@@H]21)C(=O)NCC(=O)N[C@@H](CO)C(=O)N1CCC[C@H]1C(=O)N[C@@H](CO)C(=O)N[C@@H](CO)C(=O)N[C@@H](CO)C(=O)N[C@H](C(=O)N[C@@H](CCCNC(=N)N)C(=O)N[C@@H](C)C(=O)N[C@@H](CO)C(=O)N[C@@H](Cc1ccc(O)cc1)C(=O)N[C@@H](CO)C(=O)N[C@@H](CO)C(=O)N[C@@H](CO)C(=O)N[C@@H](CCCNC(=N)N)C(=O)N[C@@H](CO)C(=O)N[C@@H](Cc1ccc(O)cc1)C(=O)N[C@H](C(=O)N[C@@H](Cc1ccc(O)cc1)C(=O)N[C@@H](CO)C(=O)N[C@@H](CO)C(=O)N[C@@H](CO)C(N)=O)C(C)C)C(C)C [NFL-SCR, reference compound] (Biotin-SLGSPSSSVRASYSSSRSYVYSSS-NH2)	18.18±3.2 % of cells	do not penetrate in cells	–	–	–	–	–	–	–	–	–	–	–	–	–	–	–	–	–
